Measured values: patent publication US9073892B2, “Indazolyl triazol derivatives” (Merck Serono S.A., priority 2010, dated 2015)

Tests used:
IRAK1/4 human = tested on: T1, IRAK1/4 human; assay: IRAK1/4 phosphorylation IC50 (enzymatic assay, table 2); format: biochemical; settings: human IRAK1/4 phosphorylation
T1 construct: fused on or other part: His tag and TEV cleavage site at the N-terminus
Outline: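 Human IRAK-1 or IRAK-4, each carrying a His-TEV tag, was incubated with ATP and compounds in DMSO ranging from 20 µM to 1 nM in 384-well plates, and IRAK-4 reactions also contained STK1-biotin peptide. Reactions ran in 50 mM Hepes pH7.0 with MgCl2, DTT, EGTA and BSA for 2 or 3 hours, with 2% DMSO controls. Inhibition is given as IC50.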

[1] = tested on: IL1β-induced IL8 release in THP1 cells; assay: IRAK IL8 secretion functional assay; format: cell-based; settings: Homo sapiens; THP-1 cells, IL1β 100 ng/ml overnight, IL8 by HTRF; read-out: IC50, Secretion THP-1/IL-β induced IL8 release
From the text: IRAK IL8 Secretion Functional Assay:
THP1 cells are human monocytes derived from acute monocytic leukemia. IL1β receptor expressed on the surface membrane of THP1 cells induced IL8 release. IRAKs are kinase signaling downstream of TLRs and TNF, IL-18, IL-33 and IL-1 receptors.
In cells, IRAK4 is upstream of IRAK1.
The Human IL8 Kit, provided by CysBio International based in Bagnols/Cèze FR, allows for the quantitative determination of IL-8 in cell-culture supernatants.
Anti-cytokine IL8 antibodies are respectively labeled with europium Cryptate and XL665. Upon their binding to IL-8 molecules, the two antibodies come into close proximity, allowing FRET (Fluorescence Resonance Energy Transfer) to occur. This FRET increases proportionally to IL-8 concentrations and be converted in IL8 pg amounts.
THP-1 cells are seeded on Day 1 in 384 well plate with RPMI 1640 at a density of 30 000 cells/well. Compounds 4×/2% DMSO (range of concentrations from 20 μM to 1 nM) and IL1β 4× at 100 ng/ml final are added to cells overnight at 37° C., 5% CO2. Measurement of IL-8 secretion is done by mixing on Day2 10 μl of supernatant with 10 μl of a mix solution of europium Cryptate and XL665 (v:v) as described by supplier.
HTRF (homogeneous time resolved fluorescence) signal is measured after 3 hours incubation time at 30° C. with a BMG Pherastar reader or equivalent.

Row | SMILES | IC50 (IRAK1/4 human) | IC50 [1]
1 | CCN1CCC[C@@H]1CNC(=O)c1ccc(-n2cc(-c3n[nH]c4ccc(C)cc34)nn2)cc1 [Example 3, N-{[(2R)-1-ethylpyrrolidin-2-yl]methyl}-4-[4-(5-methyl-1H-indazol-3-yl)-1H-1,2,3-triazol-1-yl]benzamide] | 100 to 1000 nM | 100 to 1000 nM
2 | CCN1CCC[C@H]1CNC(=O)c1ccc(-n2cc(-c3n[nH]c4ccc(C)cc34)nn2)cc1 [Example 4, N-{[(2S)-1-ethylpyrrolidin-2-yl]methyl}-4-[4-(5-methyl-1H-indazol-3-yl)-1H-1,2,3-triazol-1-yl]benzamide] | 100 to 1000 nM | 100 to 1000 nM
3 | Cc1ccc2[nH]nc(-c3cn(-c4ccc(CN5CCCC5)cc4)nn3)c2c1 [Example 6, 5-methyl-3-{1-[4-(pyrrolidin-1-ylmethyl)phenyl]-1H-1,2,3-triazol-4-yl}-1H-indazole] | 100 to 1000 nM | 100 to 1000 nM
4 | CNCc1ccc(-n2cc(-c3n[nH]c4ccc(C)cc34)nn2)cc1 [Example 8, N-methyl-1-{4-[4-(5-methyl-1H-indazol-3-yl)-1H-1,2,3-triazol-1-yl]phenyl}methanamine] | 100 to 1000 nM | 100 to 1000 nM
5 | Cc1ccc2[nH]nc(-c3cn(-c4ccc(CN5CCN(C)CC5)cc4)nn3)c2c1 [Example 9, 5-methyl-3-(1-{4-[(4-methylpiperazin-1-yl)methyl]phenyl}-1H-1,2,3-triazol-4-yl)-1H-indazole] | 1000 to 5000 nM | 100 to 1000 nM
6 | Cc1ccc2[nH]nc(-c3cn(-c4ccc(CN(C)C)cc4)nn3)c2c1 [Example 10, N,N-dimethyl-1-{4-[4-(5-methyl-1H-indazol-3-yl)-1H-1,2,3-triazol-1-yl]phenyl}methanamine] | 100 to 1000 nM | 100 to 1000 nM
7 | Cc1ccc2[nH]nc(-c3cn(-c4ccc(CN5CCNCC5)cc4)nn3)c2c1 [Example 11, 5-methyl-3-{1-[4-(piperazin-1-ylmethyl)phenyl]-1H-1,2,3-triazol-4-yl}-1H-indazole] | 100 to 1000 nM | 100 to 1000 nM
8 | O=C(NCc1ccc(-n2cc(-c3n[nH]c4ccccc34)nn2)cc1)c1ccncc1 [Example 15, N-{4-[4(1H-indazol-3-yl]-1H-1,2,3-triazol-1-yl)benzyl}isonicotinamide] | 1000 to 5000 nM | 100 to 1000 nM
9 | O=C(Cc1ccc(-n2cc(-c3n[nH]c4ccccc34)nn2)cc1)N1CCCC1 [Example 19, 3-{1-[4-(2-oxo-2-pyrrolidin-1-ylethyl)phenyl]-1H-1,2,3-triazol-4-yl}-1H-indazole] | 100 to 1000 nM | 100 to 1000 nM
10 | O=C(CCc1ccc(-n2cc(-c3n[nH]c4ccccc34)nn2)cc1)N1CCOCC1 [Example 22, 3-{1-[4-(3-morpholin-4-yl-3-oxopropyl)phenyl]-1H-1,2,3-triazol-4-yl}-1H-indazole] | 1000 to 5000 nM | 100 to 1000 nM
11 | O=C(CCc1ccc(-n2cc(-c3n[nH]c4ccccc34)nn2)cc1)N1CCCC1 [Example 23, 3-{1-[4-(3-oxo-3-pyrrolidin-1-ylpropyl)phenyl]-1H-1,2,3-triazol-4-yl}-1H-indazole] | 1000 to 5000 nM | 100 to 1000 nM
12 | COc1cc(-n2cc(-c3n[nH]c4ccccc34)nn2)ccc1C(=O)N(C)C [Example 25, 4-[4-(1H-indazol-3-yl)-1H-1,2,3-triazol-1-yl]-2-methoxy-N,N-dimethylbenzamide] | 100 to 1000 nM | 100 to 1000 nM
13 | O=C(c1ccc(-n2cc(-c3n[nH]c4ccccc34)nn2)cc1)N1CCC(O)C1 (stereo not drawn) [Example 26, 1-{4-[4-(1H-indazol-3-yl)-1H-1,2,3-triazol-1-yl]benzoyl}pyrrolidin-3-ol] | 100 to 1000 nM | 100 to 1000 nM
14 | CN(C)C1CCN(C(=O)c2ccc(-n3cc(-c4n[nH]c5ccccc45)nn3)cc2)C1 (stereo not drawn) [Example 27, 1-{4-[4-(1H-indazol-3-yl)-1H-1,2,3-triazol-1-yl]benzoyl}-N,N-dimethylpyrrolidin-3-amine] | 100 to 1000 nM | 100 to 1000 nM
15 | O=C(c1ccc(-n2cc(-c3n[nH]c4ccccc34)nn2)cc1)N1CCC(CO)CC1 [Example 28, (1-{4-[4-(1H-indazol-3-yl)-1H-1,2,3-triazol-1-yl]benzoyl}piperidin-4-yl)methanol] | 100 to 1000 nM | 100 to 1000 nM
16 | CN(C)CC1CCCN(C(=O)c2ccc(-n3cc(-c4n[nH]c5ccccc45)nn3)cc2)C1 (stereo not drawn) [Example 29, 1-(1-{4-[4-(1H-indazol-3-yl)-1H-1,2,3-triazol-1-yl]benzoyl}piperidin-3-yl)-N,N-dimethylmethanamine] | 100 to 1000 nM | 100 to 1000 nM
17 | CN1CCC(NC(=O)c2ccc(-n3cc(-c4n[nH]c5ccccc45)nn3)cc2)C1=O (stereo not drawn) [Example 31, 4-[4-(1H-indazol-3-yl)-1H-1,2,3-triazol-1-yl]-N-(1-methyl-2-oxopyrrolidin-3-yl)benzamide] | 100 to 1000 nM | 100 to 1000 nM
18 | Cc1ccc2[nH]nc(-c3cn(-c4ccc(C(=O)N5CCOCC5)cc4)nn3)c2c1 [Example 32, 5-methyl-3-{1-[4-(morpholin-4-ylcarbonyl)phenyl]-1H-1,2,3-triazol-4-yl}-1H-indazole] | 100 to 1000 nM | 100 to 1000 nM

Row | SMILES | IC50 (IRAK1/4 human) | IC50 [1]
19 | COc1cc(-n2cc(-c3n[nH]c4ccccc34)nn2)ccc1C(=O)N1CCOCC1 [Example 34, 3-{1-[3-methoxy-4-(morpholin-4-ylcarbonyl)phenyl]-1H-1,2,3-triazol-4-yl}-1H-indazole] | 1000 to 5000 nM | 100 to 1000 nM
20 | O=C(c1ccc(-n2cc(-c3n[nH]c4ccccc34)nn2)cc1)N1CCCC1 [Example 35, 3-{1-[4-(pyrrolidin-1-ylcarbonyl)phenyl]-1H-1,2,3-triazol-4-yl}-1H-indazole] | < 100 nM | 100 to 1000 nM
21 | CN(C)C(=O)c1ccc(-n2cc(-c3n[nH]c4ccccc34)nn2)cc1 [Example 36, 4-[4-(1H-indazol-3-yl)-1H-1,2,3-triazol-1-yl]-N,N-dimethylbenzamide] | 100 to 1000 nM | 100 to 1000 nM
22 | COCC1CCN(C(=O)c2ccc(-n3cc(-c4n[nH]c5ccccc45)nn3)cc2)CC1 [Example 37, 3-[1-(4-{[4-(methoxymethyl)piperidin-1-yl]carbonyl}phenyl)-1H-1,2,3-triazol-4-yl]-1H-indazole] | 100 to 1000 nM | 100 to 1000 nM
23 | O=C(c1ccc(-n2cc(-c3n[nH]c4ccccc34)nn2)cc1)N1CCCCC1 [Example 38, 3-{1-[4-(piperidin-1-ylcarbonyl)phenyl]-1H-1,2,3-triazol-4-yl}-1H-indazole] | 1000 to 5000 nM | 100 to 1000 nM
24 | CC(=O)N1CCN(C(=O)c2ccc(-n3cc(-c4n[nH]c5ccccc45)nn3)cc2)CC1 [Example 39, 3-(1-{4-[(4-acetylpiperazin-1-yl)carbonyl]phenyl}-1H-1,2,3-triazol-4-yl)-1H-indazole] | 100 to 1000 nM | 100 to 1000 nM
25 | O=C(NCCCN1CCCC1)c1ccc(-n2cc(-c3n[nH]c4ccccc34)nn2)cc1 [Example 40, 4-[4-(1H-indazol-3-yl)-1H-1,2,3-triazol-1-yl]-N-(3-pyrrolidin-1-ylpropyl)benzamide] | 100 to 1000 nM | 100 to 1000 nM
26 | CCN(CC)CCCNC(=O)c1ccc(-n2cc(-c3n[nH]c4ccccc34)nn2)cc1 [Example 42, N-[3-(diethylamino)propyl]-4-[4-(1H-indazol-3-yl)-1H-1,2,3-triazol-1-yl]benzamide] | 100 to 1000 nM | 100 to 1000 nM
27 | CN(CCc1ccncc1)C(=O)c1ccc(-n2cc(-c3n[nH]c4ccccc34)nn2)cc1 [Example 43, 4-[4-(1H-indazol-3-yl)-1H-1,2,3-triazol-1-yl]-N-methyl-N-(2-pyridin-4-ylethyl)benzamide] | 100 to 1000 nM | 100 to 1000 nM
28 | Cc1cnccc1-c1ccc(-n2cc(-c3n[nH]c4ccccc34)nn2)cc1 [Example 290] | 100 to 1000 nM | 
29 | CC(=O)Nc1ccc(-c2ccc(-n3cc(-c4n[nH]c5ccccc45)nn3)cc2)cn1 [Example 291] | 100 to 1000 nM | 
30 | O=C(c1ccc(-n2cc(-c3n[nH]c4ccc(CN5CC(O)C5)cc34)nn2)cc1)N1CCOCC1 [Example 292] | 100 to 1000 nM | 
31 | Cc1ccc2c(-c3cn(-c4ccc(CN5CC6CCC(C5)O6)cc4)nn3)n[nH]c2c1 [Example 293] | 100 to 1000 nM | 
32 | c1ccc2c(-c3cn(-c4ccc(-c5cnn(C6CCNCC6)c5)cc4)nn3)n[nH]c2c1 [Example 294] | 100 to 1000 nM | 
33 | O=C(c1ccc(-n2cc(-c3n[nH]c4ccc(CNCc5cccc(O)c5)cc34)nn2)cc1)N1CCOCC1 [Example 295] | 100 to 1000 nM | 
34 | O=C(c1ccc(-n2cc(-c3n[nH]c4cc(C(F)(F)F)ccc34)nn2)cc1)N1CCOCC1 [Example 296] | 100 to 1000 nM | 
35 | FC(F)(F)c1ccc2c(-c3cn(-c4ccc(CN5CCOCC5)cc4)nn3)n[nH]c2c1 [Example 297] | 1000 to 5000 nM | 
36 | FC(F)(F)c1ccc2c(-c3cn(-c4ccc(C5CCNCC5)cc4)nn3)n[nH]c2c1 [Example 299] | 100 to 1000 nM | 
